This note sets out measurements from patent publication US11492597B2, “Method for establishing colorectal cancer HK2 reporter gene cell line” (Guangdong Medical University, priority 2018, dated 2022).

For one assay, the system named is EGFP. Nature of the assay: 2-MeOE2 treatment of HK2 reporter cell line, transcriptional level of EGFP reporter. The class given is cell-based. Particulars: HK2 cell line treated for 24 h or 48 h, 10 uM, relative transcriptional level vs untreated control. As to the method:
(§1) 2-Methoxyestradiol (2-MeOE2) is an HIF inhibitor, and at present, has entered an anti-tumor clinical second-stage test stage. […] The HK2 cell line is treated for 24 h or 48 h in 2-MeOE2 (10 uM), and the relative expression changes of the transcriptional level of HK2 and EGFP and those untreated as a control are analyzed. […] The experimental result further proves that the colorectal cancer HK2 reporter gene cell line constructed in the present invention can be used for screening and evaluating related anticancer drugs.

The next assay deals with HK2. Nature of the assay: 2-MeOE2 treatment of HK2 reporter cell line, transcriptional level of HK2. In kind it is cell-based. Particulars: HK2 cell line treated for 24 h or 48 h, 10 uM, relative transcriptional level vs untreated control. As to the method: as §1

`COc1cc2c(cc1O)CC[C@@H]1[C@@H]2CC[C@]2(C)[C@@H](O)CC[C@@H]12` [2-MeOE2, 2-Methoxyestradiol]: in the assay on EGFP, the “expression of the EGFP” value is on record as “synergistically inhibited”. Moreover, the “expression level of HK2” value in the assay on HK2 was “obviously inhibited”.
